Results from PubChem BioAssay (NCI).
“And” between values parts separate entries of the source, which are not always exact repeats. Equal values may be shown once.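 Abbreviation: GI50, concentration required for 50% inhibition of growth. The concentration for full growth arrest is given as TGI.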

Columns and labels:
Assay in all cases: DTP human tumour cell line panel, 384-well format
786-0 renal = tested on: 786-0 renal
A498 renal = tested on: A498 renal
A549 NSCLC = tested on: A549 NSCLC
ACHN renal = tested on: ACHN renal
BT-549 breast = tested on: BT-549 breast
CAKI-1 renal = tested on: CAKI-1 renal
CCRF-CEM leukemia = tested on: CCRF-CEM leukemia
COLO 205 colon = tested on: COLO 205 colon
DU-145 prostate = tested on: DU-145 prostate
EKVX NSCLC = tested on: EKVX NSCLC
HCC-2998 colon = tested on: HCC-2998 colon
HCT-116 colon = tested on: HCT-116 colon
HCT-15 colon = tested on: HCT-15 colon
HL-60(TB) leukemia = tested on: HL-60(TB) leukemia
HOP-62 NSCLC = tested on: HOP-62 NSCLC
HOP-92 NSCLC = tested on: HOP-92 NSCLC
HS 578T breast = tested on: HS 578T breast
HT29 colon = tested on: HT29 colon
IGROV1 ovarian = tested on: IGROV1 ovarian
K-562 leukemia = tested on: K-562 leukemia
KM12 colon = tested on: KM12 colon
LOX IMVI melanoma = tested on: LOX IMVI melanoma
M14 melanoma = tested on: M14 melanoma
MALME-3M melanoma = tested on: MALME-3M melanoma
MCF7 breast = tested on: MCF7 breast
MDA-MB-231 breast = tested on: MDA-MB-231 breast
MDA-MB-435 melanoma = tested on: MDA-MB-435 melanoma
MDA-MB-468 breast = tested on: MDA-MB-468 breast
MOLT-4 leukemia = tested on: MOLT-4 leukemia
NCI-H226 lung = tested on: NCI-H226 lung
NCI-H23 lung = tested on: NCI-H23 lung
NCI-H322M lung = tested on: NCI-H322M lung
NCI-H460 NSCLC = tested on: NCI-H460 NSCLC
NCI-H522 lung = tested on: NCI-H522 lung
NCI/ADR-RES ovarian = tested on: NCI/ADR-RES ovarian
OVCAR-3 ovarian = tested on: OVCAR-3 ovarian
OVCAR-4 ovarian = tested on: OVCAR-4 ovarian
OVCAR-5 ovarian = tested on: OVCAR-5 ovarian
OVCAR-8 ovarian = tested on: OVCAR-8 ovarian
PC-3 prostate = tested on: PC-3 prostate
RPMI-8226 leukemia = tested on: RPMI-8226 leukemia
RXF 393 renal = tested on: RXF 393 renal
SF-268 CNS = tested on: SF-268 CNS
SF-295 CNS = tested on: SF-295 CNS
SF-539 CNS = tested on: SF-539 CNS
SK-MEL-2 melanoma = tested on: SK-MEL-2 melanoma
SK-MEL-28 melanoma = tested on: SK-MEL-28 melanoma
SK-MEL-5 melanoma = tested on: SK-MEL-5 melanoma
SK-OV-3 ovarian = tested on: SK-OV-3 ovarian
SN12C renal = tested on: SN12C renal
SNB-19 CNS = tested on: SNB-19 CNS
SNB-75 CNS = tested on: SNB-75 CNS
SR leukemia = tested on: SR leukemia
SW-620 colon = tested on: SW-620 colon
T-47D breast = tested on: T-47D breast
TK-10 renal = tested on: TK-10 renal
U251 glioblastoma = tested on: U251 glioblastoma
UACC-257 melanoma = tested on: UACC-257 melanoma
UACC-62 melanoma = tested on: UACC-62 melanoma
UO-31 renal = tested on: UO-31 renal

`COc1c(OCCCN2CCOCC2)ccc2c3n(c(=NC(=O)c4cnc(N)nc4)nc12)CCN3` was tested, and the GI50 ([…]-0 renal) was 177 nM and 242 nM, the TGI (786-0 renal) was 14000 nM and the GI50 (A498 renal) was 53.9 nM and 68.3 nM. The TGI (A498 renal) was 146 nM and 470 nM, the GI50 (A549 NSCLC) was 67.7 nM and 54.1 nM and the TGI (A549 NSCLC) was 849 nM and 908 nM. The GI50 (ACHN renal) was 26.6 nM and 108 nM, the GI50 (BT-549 breast) was 102 nM and 65.3 nM and the TGI (BT-549 breast) was 2870 nM and 648 nM. The GI50 (CAKI-1 renal) was 27 nM and 72.4 nM, the TGI (CAKI-1 renal) was 317 nM and the GI50 (CCRF-CEM leukemia) was 18 nM and 38.6 nM. For the same compound, the TGI (CCRF-CEM leukemia) was 5610 nM and 1330 nM, the GI50 (COLO 205 colon) was 26.9 nM and 48.5 nM and the TGI (COLO 205 colon) was 3670 nM and 3440 nM. For the same compound, the GI50 (DU-145 prostate) was 128 nM and 164 nM, the TGI (DU-145 prostate) was greater than 100000 nM and the GI50 (EKVX NSCLC) was 22 nM and 56.8 nM. For the same compound, the TGI (EKVX NSCLC) was 289 nM and 1160 nM, the GI50 (HCC-2998 colon) was 82.3 nM and 138 nM and the TGI (HCC-2998 colon) was 5440 nM and 766 nM. For the same compound, the GI50 (HCT-116 colon) was 101 nM and 163 nM, the TGI (HCT-116 colon) was greater than 50000 nM and the GI50 (HCT-15 colon) was 47.8 nM and 78.3 nM. For the same compound, the TGI (HCT-15 colon) was greater than 50000 nM, the GI50 (HL-60(TB) leukemia) was less than 5 nM and the GI50 (HOP-62 NSCLC) was 167 nM and 385 nM. For the same compound, the TGI (HOP-62 NSCLC) was greater than 100000 nM, the GI50 (HOP-92 NSCLC) was 38.5 nM and 35 nM and the GI50 (HS 578T breast) was 55.7 nM and 30 nM. The TGI (HS 578T breast) was 289 nM and 347 nM, the GI50 (HT29 colon) was 22.9 nM and the TGI (HT29 colon) was greater than 50000 nM. The GI50 (IGROV1 ovarian) was less than 5 nM, the TGI (IGROV1 ovarian) was 16.5 nM and 29.9 nM and the GI50 (K-562 leukemia) was 2250 nM. The TGI (K-562 leukemia) was greater than 50000 nM, the GI50 (KM12 colon) was 436 nM and 316 nM and the TGI (KM12 colon) was greater than 100000 nM. For the same compound, the GI50 (LOX IMVI melanoma) was 154 nM, the TGI (LOX IMVI melanoma) was 1210 nM and the GI50 (M14 melanoma) was 190 nM and 158 nM. For the same compound, the TGI (M14 melanoma) was greater than 50000 nM, the GI50 (MALME-3M melanoma) was 74.5 nM and 22.8 nM and the TGI (MALME-3M melanoma) was 396 nM and 204 nM. The GI50 (MCF7 breast) was less than 5 nM, the TGI (MCF7 breast) was greater than 50000 nM and the GI50 (MDA-MB-231 breast) was 1960 nM and 219 nM. The GI50 (MDA-MB-435 melanoma) was 237 nM, the TGI (MDA-MB-435 melanoma) was greater than 100000 nM and the GI50 (MDA-MB-468 breast) was 15.3 nM and 20.4 nM. For the same compound, the TGI (MDA-MB-468 breast) was 79.7 nM and 138 nM, the GI50 (MOLT-4 leukemia) was 17.3 nM and < 11.8 nM and the TGI (MOLT-4 leukemia) was 101 nM and 38.5 nM. For the same compound, the GI50 (NCI-H226 lung) was 160 nM and 90.8 nM, the TGI (NCI-H226 lung) was greater than 50000 nM and the GI50 (NCI-H23 lung) was 472 nM and 248 nM. The TGI (NCI-H23 lung) was greater than 50000 nM, the GI50 (NCI-H322M lung) was 93.3 nM and 38.9 nM and the GI50 (NCI-H460 NSCLC) was 21.5 nM and 25.9 nM. The TGI (NCI-H460 NSCLC) was greater than 100000 nM, the GI50 (NCI-H522 lung) was 147 nM and 151 nM and the TGI (NCI-H522 lung) was > 50000 nM and 5610 nM. The GI50 (NCI/ADR-RES ovarian) was 1970 nM and 424 nM, the TGI (NCI/ADR-RES ovarian) was greater than 100000 nM and the GI50 (OVCAR-3 ovarian) was 69 nM and 43.9 nM. The TGI (OVCAR-3 ovarian) was 556 nM and 619 nM, the GI50 (OVCAR-4 ovarian) was 419 nM and 388 nM and the TGI (OVCAR-4 ovarian) was 15700 nM and 3430 nM. For the same compound, the GI50 (OVCAR-5 ovarian) was 51.9 nM and 152 nM, the TGI (OVCAR-5 ovarian) was greater than 100000 nM and the GI50 (OVCAR-8 ovarian) was 118 nM and 219 nM. The TGI (OVCAR-8 ovarian) was greater than 50000 nM, the GI50 (PC-3 prostate) was 66.8 nM and 34.4 nM and the GI50 (RPMI-8226 leukemia) was 129 nM and 122 nM. For the same compound, the TGI (RPMI-8226 leukemia) was 441 nM and 285 nM, the GI50 (RXF 393 renal) was 174 nM and 47 nM and the TGI (RXF 393 renal) was 611 nM and 162 nM. The GI50 (SF-268 CNS) was 132 nM and 268 nM, the TGI (SF-268 CNS) was 29100 nM and the GI50 (SF-295 CNS) was 177 nM and 135 nM. For the same compound, the GI50 (SF-539 CNS) was 103 nM and 96.9 nM, the GI50 (SK-MEL-2 melanoma) was 224 nM and the TGI (SK-MEL-2 melanoma) was 7360 nM. The GI50 (SK-MEL-28 melanoma) was 71 nM and 56.2 nM, the TGI (SK-MEL-28 melanoma) was 2560 nM and the GI50 (SK-MEL-5 melanoma) was 69.8 nM and 95.1 nM. For the same compound, the TGI (SK-MEL-5 melanoma) was 197 nM and 431 nM, the GI50 (SK-OV-3 ovarian) was 10.1 nM and the TGI (SK-OV-3 ovarian) was 63.7 nM. For the same compound, the GI50 (SN12C renal) was 77.7 nM, the TGI (SN12C renal) was greater than 50000 nM and the GI50 (SNB-19 CNS) was 572 nM and 1040 nM. The TGI (SNB-19 CNS) was greater than 100000 nM, the GI50 (SNB-75 CNS) was 7.16 nM and < 13.2 nM and the TGI (SNB-75 CNS) was 31.7 nM and 81.4 nM. For the same compound, the GI50 (SR leukemia) was 215 nM and 198 nM, the TGI (SR leukemia) was 3020 nM and 714 nM and the GI50 (SW-620 colon) was 270 nM and 656 nM. For the same compound, the TGI (SW-620 colon) was greater than 100000 nM, the GI50 (T-47D breast) was less than 5 nM and the TGI (T-47D breast) was 25.6 nM and < 10.6 nM. For the same compound, the GI50 (TK-10 renal) was 22.8 nM and 28 nM, the TGI (TK-10 renal) was 583 nM and 612 nM and the GI50 (U251 glioblastoma) was 314 nM and 510 nM. The TGI (U251 glioblastoma) was greater than 100000 nM, the GI50 (UACC-257 melanoma) was 172 nM and 201 nM and the TGI (UACC-257 melanoma) was 10300 nM and 3800 nM. For the same compound, the GI50 (UACC-62 melanoma) was 82 nM and 84.4 nM, the TGI (UACC-62 melanoma) was 237 nM and 362 nM and the GI50 (UO-31 renal) was 30.5 nM. It also gave a TGI (UO-31 renal) of 258 nM.
